pIC50: −log10 of the molar value.
Tests used:
Assay type in all cases: cell-based
[1] = molecular target: T1, KATP channels in SNc DA neurons (Rattus norvegicus, UniProt P70673+Q09429); test: Perforated patch current-clamp recording of rotenone-opened KATP channels in dissociated SNc DA neurons; conditions: for altered membrane potential in the presence of rotenone: FIG. 5C
T1 construct: functional KATP channels natively expressed on midbrain dopamine neurons; from tissue; host or cells: acutely dissociated dopaminergic neurons of rat substantia nigra pars compacta
T1 sequence (P70673 whole entry): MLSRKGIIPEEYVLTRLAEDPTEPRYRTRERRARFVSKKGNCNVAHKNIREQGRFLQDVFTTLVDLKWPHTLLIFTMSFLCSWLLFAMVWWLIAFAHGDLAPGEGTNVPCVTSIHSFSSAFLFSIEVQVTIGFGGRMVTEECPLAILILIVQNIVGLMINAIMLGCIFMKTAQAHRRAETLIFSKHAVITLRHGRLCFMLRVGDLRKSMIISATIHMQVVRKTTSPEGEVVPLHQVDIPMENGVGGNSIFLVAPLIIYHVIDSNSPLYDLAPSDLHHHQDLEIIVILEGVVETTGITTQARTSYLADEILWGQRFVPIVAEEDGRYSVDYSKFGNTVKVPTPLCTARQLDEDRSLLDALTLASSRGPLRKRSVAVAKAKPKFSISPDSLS
T1 sequence (Q09429 whole entry): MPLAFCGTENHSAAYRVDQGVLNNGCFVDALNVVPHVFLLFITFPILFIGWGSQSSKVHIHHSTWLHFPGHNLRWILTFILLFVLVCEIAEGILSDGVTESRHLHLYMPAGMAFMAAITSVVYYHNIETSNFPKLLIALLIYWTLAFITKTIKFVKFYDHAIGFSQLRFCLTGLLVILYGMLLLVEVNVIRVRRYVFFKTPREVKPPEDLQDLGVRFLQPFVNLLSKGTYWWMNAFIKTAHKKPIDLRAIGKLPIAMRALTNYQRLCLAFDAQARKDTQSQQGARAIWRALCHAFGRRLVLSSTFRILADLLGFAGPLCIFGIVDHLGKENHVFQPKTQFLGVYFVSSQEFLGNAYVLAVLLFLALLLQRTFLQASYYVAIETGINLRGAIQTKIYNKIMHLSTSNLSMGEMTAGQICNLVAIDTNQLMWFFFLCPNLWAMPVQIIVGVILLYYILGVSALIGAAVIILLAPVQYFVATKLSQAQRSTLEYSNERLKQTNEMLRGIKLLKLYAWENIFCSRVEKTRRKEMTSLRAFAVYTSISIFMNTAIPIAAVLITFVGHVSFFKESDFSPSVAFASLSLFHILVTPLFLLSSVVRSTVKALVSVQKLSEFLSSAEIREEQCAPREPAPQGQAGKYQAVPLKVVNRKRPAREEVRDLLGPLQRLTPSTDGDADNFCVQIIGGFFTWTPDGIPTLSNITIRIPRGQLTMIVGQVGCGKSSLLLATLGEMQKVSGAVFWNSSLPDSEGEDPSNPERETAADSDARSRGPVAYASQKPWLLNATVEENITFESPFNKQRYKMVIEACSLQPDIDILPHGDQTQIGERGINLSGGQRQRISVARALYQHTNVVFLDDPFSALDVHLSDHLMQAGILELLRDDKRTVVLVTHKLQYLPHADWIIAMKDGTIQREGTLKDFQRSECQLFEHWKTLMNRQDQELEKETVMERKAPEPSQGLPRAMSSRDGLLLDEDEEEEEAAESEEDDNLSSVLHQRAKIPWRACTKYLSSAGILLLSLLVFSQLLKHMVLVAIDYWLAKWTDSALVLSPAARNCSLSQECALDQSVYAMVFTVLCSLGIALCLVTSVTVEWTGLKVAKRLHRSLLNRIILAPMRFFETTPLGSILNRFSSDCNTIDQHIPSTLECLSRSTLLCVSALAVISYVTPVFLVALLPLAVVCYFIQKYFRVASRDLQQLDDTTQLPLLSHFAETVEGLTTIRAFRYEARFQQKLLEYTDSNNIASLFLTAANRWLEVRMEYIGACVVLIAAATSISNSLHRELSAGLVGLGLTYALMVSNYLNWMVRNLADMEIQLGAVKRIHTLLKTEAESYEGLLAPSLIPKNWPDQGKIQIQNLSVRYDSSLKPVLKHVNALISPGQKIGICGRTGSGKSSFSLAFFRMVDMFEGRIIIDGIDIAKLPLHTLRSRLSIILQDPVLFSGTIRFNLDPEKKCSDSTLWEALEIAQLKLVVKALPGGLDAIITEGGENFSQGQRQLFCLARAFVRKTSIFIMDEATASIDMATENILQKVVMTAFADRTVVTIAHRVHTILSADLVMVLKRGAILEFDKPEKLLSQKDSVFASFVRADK
Description: The protocol for preparation of single neurons from the rat SNc was approved by the Institutional Animal Care and Use Committee of the Barrow Neurological Institute. Single DA neurons were acutely dissociated from the SNc of 2-3-week-old Wistar rats following the protocol as previously described. Briefly, rats were anesthetized with isoflurane, and brain tissue was rapidly removed and immersed in cold (2-4° C.) dissection solution which contained: 136.7 mM NaCl, 5 mM KCl, 0.1 mM Na2HPO4, 0.2 mM KH2PO4, 9.84 mM HEPES, 16.6 mM D-glucose, 21.9 mM sucrose, pH 7.3, 330 mOsm, oxygenated with 100% O2 [8]. Three 400-μm coronal slices containing the SNc were cut using a vibrotome (Vibroslice 725M, WPI, Sarasota, Fla.). After cutting, slices were continuously bubbled with 95% O2-5% CO2 at room temperature (22±1° C.) for at least one hour in artificial cerebrospinal fluid (ACSF), which contained: 124 mM NaCl, 5 mM KCl, 24 mM NaHCO3, 1.3 mM MgSO4, 1.2 mM KH2PO4, 2.4 mM CaCl2, and 10 mM glucose, pH 7.4. Thereafter, slices were treated with pronase (1 mg per 6 ml) at 31° C. for 30 minutes in ACSF. The SNc was identified in a coronal slice using a stereo microscope with reference to the rat brain atlas, and was micro-punched out from slices using a well-polished needle. One punched piece was then transferred to a 35-mm culture dish filled with well-oxygenated standard extracellular solution, which contained: 150 mM NaCl, 5 mM KCl, 1 mM MgCl2, 2 mM CaCl2, 10 mM glucose 10, and 10 mM HEPES, pH 7.4 (with Tris-base). The punched piece was then dissociated mechanically using a fire-polished micro-Pasteur pipette under an inverted microscope (Olympus IX-70, Lake Success, N.Y.). The separated cells adhered to the bottom of the culture dish within 30 minutes. In the present study, we used only DA neurons that maintained their original morphological features of polygonal, large or medium somata with 2-4 thick primary dendritic processes were used.
Perforated patch whole-cell recording techniques were employed as previously described. Pipettes (3-5 MΩ) used for perforated patch recording were filled with intracellular recording solution containing 140 mM potassium gluconate, 10 mM KCl, 5 mM MgCl2, and 10 mM HEPES, pH 7.2 (with Tris-OH). The amphotericin B was freshly prepared to 200-240 μg/ml from a 40 mg/ml in DMSO stock. The liquid junction potential was 14 mV calculated using Clamplex 9.2 (Axon Instruments, Foster City, Calif.) and corrections were made for junction potentials post-hoc. After tight seal (>2 GΩ) formation, it usually took about 5-20 min to convert to perforated patch mode, and an access resistance of 20-60 MΩ was accepted to start the experiments. Series resistance was not compensated in this study. The data were filtered at 2 kHz, acquired at 10 kHz and digitized on-line (Digidata 1322 series A/D board, Axon Instruments, Foster City, Calif.). […] Drug application was performed using a computer-controlled “U-tube” system as previously described. All experiments were performed at room temperature (22±1° C.). To enable identification of single, dissociated SNc neurons after a patch-clamp recording session, the recording pipette was filled with a fluorescent dye (lucifer yellow CH, Sigma Chemical Co., St. Louis, Mo., 1.0 mg/ml in the recording electrode) in some experiments. After conversion from the perforated patch to the conventional whole-cell recording mode, the dye was ejected into the cytoplasm by a pulse (200 ms, 0.5 Hz) of hyperpolarizing current (1.0 nA) for 3 min. Labeled cells were visualized using epifluorescence microscopy.
Under physiological conditions, the KATP channels are mostly closed. However, in the acutely-dissociated single neurons from rat SNc, there is background opening of KATP channels. […]

[2] = molecular target: T2, Kir6.2SUR1 KATP channels (Homo sapiens, UniProt Q09428+Q14654); test: Patch-clamp cell attached single-channel recording of transfected Kir6.2SUR1 channels in HEK-293 cells
T2 construct: expressed in transfected cells; host or cells: HEK-293
T2 sequence (Q14654 whole entry): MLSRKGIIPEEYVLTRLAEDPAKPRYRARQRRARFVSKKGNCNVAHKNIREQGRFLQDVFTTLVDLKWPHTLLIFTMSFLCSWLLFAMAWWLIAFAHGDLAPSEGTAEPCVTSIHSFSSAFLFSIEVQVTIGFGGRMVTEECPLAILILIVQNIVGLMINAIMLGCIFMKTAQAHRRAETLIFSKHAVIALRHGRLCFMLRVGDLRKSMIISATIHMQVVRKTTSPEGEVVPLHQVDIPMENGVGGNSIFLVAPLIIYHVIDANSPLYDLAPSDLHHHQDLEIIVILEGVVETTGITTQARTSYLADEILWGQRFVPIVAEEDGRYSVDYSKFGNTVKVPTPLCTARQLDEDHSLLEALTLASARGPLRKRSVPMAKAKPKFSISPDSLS
T2 sequence (Q09428 whole entry): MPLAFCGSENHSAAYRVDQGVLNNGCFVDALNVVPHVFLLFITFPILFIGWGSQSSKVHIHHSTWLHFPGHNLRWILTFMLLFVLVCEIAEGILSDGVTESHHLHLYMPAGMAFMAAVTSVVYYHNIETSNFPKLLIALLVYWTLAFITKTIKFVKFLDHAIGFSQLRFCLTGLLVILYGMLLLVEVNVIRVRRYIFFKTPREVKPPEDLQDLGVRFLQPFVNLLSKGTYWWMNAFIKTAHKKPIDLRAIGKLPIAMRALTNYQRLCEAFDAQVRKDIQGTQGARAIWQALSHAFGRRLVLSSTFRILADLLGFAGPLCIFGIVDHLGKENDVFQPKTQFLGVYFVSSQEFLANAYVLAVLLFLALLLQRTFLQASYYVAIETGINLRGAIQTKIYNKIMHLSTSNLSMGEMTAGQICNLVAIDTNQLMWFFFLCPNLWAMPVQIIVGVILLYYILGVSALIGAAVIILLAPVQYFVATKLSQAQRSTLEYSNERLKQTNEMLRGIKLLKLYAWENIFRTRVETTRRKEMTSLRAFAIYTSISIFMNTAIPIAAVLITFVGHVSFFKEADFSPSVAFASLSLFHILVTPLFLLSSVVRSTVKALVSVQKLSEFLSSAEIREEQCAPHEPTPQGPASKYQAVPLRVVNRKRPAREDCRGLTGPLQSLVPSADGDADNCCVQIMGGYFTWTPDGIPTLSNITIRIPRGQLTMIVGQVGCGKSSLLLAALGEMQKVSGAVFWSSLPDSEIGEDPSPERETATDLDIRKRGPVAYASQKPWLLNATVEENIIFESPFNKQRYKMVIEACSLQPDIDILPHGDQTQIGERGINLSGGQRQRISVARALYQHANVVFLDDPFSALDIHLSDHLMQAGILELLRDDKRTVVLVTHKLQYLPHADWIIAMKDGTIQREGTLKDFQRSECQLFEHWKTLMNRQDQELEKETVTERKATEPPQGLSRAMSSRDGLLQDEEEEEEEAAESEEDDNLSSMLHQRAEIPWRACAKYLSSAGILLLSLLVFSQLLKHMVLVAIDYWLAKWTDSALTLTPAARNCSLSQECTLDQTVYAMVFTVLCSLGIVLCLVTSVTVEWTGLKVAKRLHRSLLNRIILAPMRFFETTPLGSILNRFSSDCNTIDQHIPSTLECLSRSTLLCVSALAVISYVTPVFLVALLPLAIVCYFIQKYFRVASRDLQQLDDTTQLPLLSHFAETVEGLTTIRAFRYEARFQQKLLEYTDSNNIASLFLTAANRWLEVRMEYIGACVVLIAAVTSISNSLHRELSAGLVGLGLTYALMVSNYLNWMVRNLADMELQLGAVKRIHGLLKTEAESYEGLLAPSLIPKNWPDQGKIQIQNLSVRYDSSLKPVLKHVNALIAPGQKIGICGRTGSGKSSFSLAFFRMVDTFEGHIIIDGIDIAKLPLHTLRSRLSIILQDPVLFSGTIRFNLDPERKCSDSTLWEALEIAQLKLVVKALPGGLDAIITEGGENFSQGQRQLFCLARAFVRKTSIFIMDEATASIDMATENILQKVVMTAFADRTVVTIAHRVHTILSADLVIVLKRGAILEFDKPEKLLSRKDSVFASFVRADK
Description: In β-cells, the dominant subtype of KATP is the Kir 6.2SUR1 subtype, as earlier described. Cells transiently transfected with the KATP Kir 6.2SUR1 channel subtype were evaluated for membrane potential and action potential firing using cell-attached recording in the presence or absence of 100 μm THB (FIG. 8A).
To further determine the effects of THB and Ipt on pancreatic β-cell-type KATP channels, the inventor examined the effects of THB or Ipt on the transfected Kir6.2SUR1 KATP channels in HEK-293 cells.

[3] = molecular target: T3, pancreatic β-cell KATP channels (Rattus norvegicus, UniProt P70673+Q09429); test: Inside-out patch single channel recording in rat pancreatic β-cells, ATP free solution; conditions: bath-applied
T3 construct: Single Channel Currents of KATP Channels in Rat Pancreatic β-Cells; from tissue; host or cells: rat pancreatic β-cells
T3 sequence (P70673 whole entry): as the sequence (P70673 whole entry) above
T3 sequence (Q09429 whole entry): as the sequence (Q09429 whole entry) above

COc1ccc2c(c1OC)CN1CCc3cc4c(cc3C1C2)OCO4 (centres unmarked) [THB, tetrahydroberberine]
membrane potential after substance during persistent perfusion of rotenone ([1]; 1 μM rotenone, before: THB −61.7±1.3 (n=11), tolbutamide −61.6±1.2 (n=21), p<0.01): −46.7±0.9 mV
altered membrane potential in the presence of rotenone ([1]; 1 μM substance): 0.8±0.3 mV
altered membrane potential in the presence of rotenone ([1]; 10 μM substance): 5.7±0.7 mV
altered membrane potential in the presence of rotenone ([1]; 100 μM substance): 15.1±1.2 mV
altered membrane potential (depolarization) on rotenone-opened KATP channels, analog comparison ([1]; 100 μM, 6 neurons, FIG. 4B): 15.5±1.6 mV
Hill coefficient of concentration-effect relationship curve ([1]; membrane depolarization in the presence of rotenone): 2.1
pIC50 ([1]; membrane depolarization in the presence of rotenone, read-out: IC50 of concentration-effect relationship curve (block of KATP channels)): 4.88
effect on rotenone-induced membrane hyperpolarization in the presence of D2 receptor antagonist ([1]; rotenone 1 mM and sulpiride 10 mM as printed, 6 neurons, FIG. 7A): significantly restored membrane hyperpolarization and action potential firing
normalized NPo value ([2]; 100 μM, control as 1, THB 6 patches, Ipt 8 patches): 0.51±0.05
change in channel activity NP0 compared to control ([2]; 100 μm THB, three experiments, FIG. 8B): 50%
effect on single channel activities opened by ATP free solution [3]: inhibited these single channel activities

— patent US11065244B2, “Methods of use of tetrahydroberberine (THB)” (DIGNITY HEALTH, priority 2010, dated 2021)
